# Data from US8754066B2, “Phenoxy derivatives as sphingosine 1-phosphate (S1P) receptor modulators” (Allergan, Inc., priority 2012, dated 2014).
# pEC50: −log10 of the molar value.
# Biological target: T1, human S1P1 receptor (Homo sapiens, UniProt P21453)
# T1 construct: expressed in transfected cells; host or cells: unnamed cells stably expressing the receptor; membranes used
# Test: GTP γ35S binding assay for S1P1 activity
# Type: biochemical
# Conditions: activity potency from GTP γ35S binding; 5 μg membrane protein; test compounds 0.08 to 5,000 nM; 30 min at 25° C.
# Protocol: Compounds were synthesized and tested for S1P1 activity using the GTP γ^35S binding assay. These compounds may be assessed for their ability to activate or block activation of the human S1P1 receptor in cells stably expressing the […] receptor.
# GTP γ^35S binding was measured in the medium containing (mM) HEPES 25, pH 7.4, MgCl2 10, NaCl 100, dithitothreitol 0.5, digitonin 0.003%, 0.2 nM GTP γ^35S, and 5 μg membrane protein in a volume of 150 μl. Test compounds were included in the concentration range from 0.08 to 5,000 nM unless indicated otherwise. Membranes were incubated with 100 μM 5′-adenylylimmidodiphosphate for 30 min, and subsequently with 10 μM GDP for 10 min on ice. Drug solutions and membrane were mixed, and then reactions were initiated by adding GTP γ^35S and continued for 30 min at 25° C. Reaction mixtures were filtered over Whatman GF/B filters under vacuum, and washed three times with 3 mL of ice-cold buffer (HEPES 25, pH7.4, MgCl2 10 and NaCl 100). Filters were dried and mixed with scintillant, and counted for ^35S activity using a β-counter. Agonist-induced GTP γ^35S binding was obtained by subtracting that in the absence of agonist. Binding data were analyzed using a non-linear regression method. In case of antagonist assay, the reaction mixture contained 10 nM S1P in the presence of test antagonist at concentrations ranging from 0.08 to 5000 nM.
# Activity potency: S1P1 receptor from GTP γ^35S: nM, (EC50),
# T1 sequence (P21453 whole entry): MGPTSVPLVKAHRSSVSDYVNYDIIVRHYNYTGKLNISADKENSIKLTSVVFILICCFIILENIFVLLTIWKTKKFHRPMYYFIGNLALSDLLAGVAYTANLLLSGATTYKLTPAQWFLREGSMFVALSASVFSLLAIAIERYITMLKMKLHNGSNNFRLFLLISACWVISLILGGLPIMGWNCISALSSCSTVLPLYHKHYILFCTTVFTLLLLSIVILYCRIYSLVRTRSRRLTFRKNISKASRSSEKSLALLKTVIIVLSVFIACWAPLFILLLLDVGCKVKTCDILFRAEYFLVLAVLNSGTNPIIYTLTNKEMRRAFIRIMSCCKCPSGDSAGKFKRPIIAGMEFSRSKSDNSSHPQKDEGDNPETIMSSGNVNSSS
row,pEC50,Structure (SMILES)
1,7.85,"Cc1ccc(CC(CCCOc2ccc(CNCCC(=O)O)cc2)c2ccsc2)cc1C (centres unmarked) [Compound 1, 3-[(4-{[5-(3,4-dimethylphenyl)-4-(3-thienyl)pentyl]oxy}benzyl)amino]propanoic acid]"
2,9.07,"Cc1ccc(CC(CCCOc2ccc(CNCCC(=O)O)cc2)c2cccc(F)c2F)cc1C (centres unmarked) [Compound 2, 3-[(4-{[4-(2,3-difluorophenyl)-5-(3,4-dimethylphenyl)pentyl]oxy}benzyl)amino]propanoic acid]"
3,6.87,"Cc1ccc(CC(CCCCOc2ccc(CNCCC(=O)O)cc2)c2cccc(Cl)c2)cc1C (centres unmarked) [Compound 3, 3-[(4-{[5-(3-chlorophenyl)-6-(3,4-dimethylphenyl)hexyl]oxy}benzyl)amino]propanoic acid]"
4,7.75,"Cc1ccc(CC(CCCOc2ccc(CNCCC(=O)O)cc2)c2cc(F)cc(F)c2)cc1C (centres unmarked) [Compound 4, 3-[(4-{[4-(3,5-difluorophenyl)-5-(3,4-dimethylphenyl)pentyl]oxy}benzyl)amino]propanoic acid]"
5,7.23,"Cc1ccc(CC(CCCOc2ccc(CNCCC(=O)O)cc2)c2cccc(Cl)c2)cc1C (centres unmarked) [Compound 5, 3-[(4-{[4-(3-chlorophenyl)-5-(3,4-dimethylphenyl)pentyl]oxy}benzyl)amino]propanoic acid]"
6,8.68,Cc1ccc(CC(CCCOc2ccc(CNCCCP(=O)(O)O)cc2)c2ccsc2)cc1C (centres unmarked) [Compound 7]
7,7.77,"Cc1ccc(CC(CCCCOc2ccc(CNCCCP(=O)(O)O)cc2)c2cccc(Cl)c2)cc1C (centres unmarked) [Compound 8, {3-[(4-{[5-(3-chlorophenyl)-6-(3,4-dimethylphenyl)hexyl]oxy}benzyl)amino]propyl}phosphonic acid]"
8,11.00,"Cc1ccc(CC(CCCOc2ccc(CNCCCP(=O)(O)O)cc2)c2cc(F)cc(F)c2)cc1C (centres unmarked) [Compound 9, {3-[(4-{[4-(3,5-difluorophenyl)-5-(3,4-dimethylphenyl)pentyl]oxy}benzyl)amino]propyl}phosphonic acid]"
9,9.64,"Cc1ccc(CC(CCCOc2ccc(CNCCCP(=O)(O)O)cc2)c2cccc(Cl)c2)cc1C (centres unmarked) [Compound 10, {3-[(4-{[4-(3-chlorophenyl)-5-(3,4-dimethylphenyl)pentyl]oxy}benzyl)amino]propyl}phosphonic acid]"

row,Structure (SMILES),pEC50
1,"Cc1ccc(CC(CCOc2ccc(CNCCC(=O)O)cc2)c2cccc(Cl)c2)cc1C (centres unmarked) [Compound 6, 3-({4-[3-(3-chlorophenyl)-4-(3,4-dimethylphenyl)butoxy]benzyl}amino)propanoic acid]",7.01
2,"Cc1ccc(CC(CCOc2ccc(CNCCCP(=O)(O)O)cc2)c2cccc(Cl)c2)cc1C (centres unmarked) [Compound 11, [3-({4-[3-(3-chlorophenyl)-4-(3,4-dimethylphenyl)butoxy]benzyl}amino)propyl]phosphonic acid]",8.13
